Data: US20200069775A1, “BRAIN OSTEOCALCIN RECEPTOR AND COGNITIVE DISORDERS” (The Trustees of Columbia University in the City of New York, priority 2017, published 2020)
Where no end group is shown, it is not given here.

What was measured:
[1] = tested on: neurons in WT brain sections (ventral tegmental area, substantia nigrae, raphe nuclei); test: Binding of biotinylated osteocalcin to brain sections (anti-biotin immunofluorescence); parameters: species or system mouse
Description: Brains from 8-week-old mice were snap-frozen in isopentane, and […] thick sections were prepared and desiccated overnight at 4° C. under vacuum. On the following day, sections were rehydrated in ice-cold binding buffer (50 mM TrisHCl [pH 7.4], 10 mM MgCl2, 0.1 mM EDTA and 0.1% BSA) for 15 min and incubated for 1 hr in the presence of biotinylated osteocalcin (3, 30, 300, 3000 ng/ml) or biotynylated recombinant GST as a control (10 μg/ml). After washing in harvesting buffer (50 mM Tris-HCl, pH 7.4), samples were fixed in 4% paraformaldehyde for 15 min, washed in PBS and incubated with goat anti-biotin antibody (1:1000, Vector laboratories) over night at 4° C. Signal was visualized by incubating with anti-goat IgG Cy-3 using Leica DM 5000B microscope (Leica). The binding assays were perform on adjacent sections for each conditions tested. […] This was tested by incubating sections of adult or embryonic (E18.5) WT brains with biotinylated undercarboxylated osteocalcin or GST-biotin alone (30 μg/ml), followed by immunofluorescence analysis using an anti-biotin antibody.

[2] = molecular target: T1, complex containing Gpr158 and the G[…]q subunit (Mus musculus, UniProt Q8C419); test: Pull-down assay with biotinylated osteocalcin on solubilized hippocampal membranes; assay type: binding; conditions: solubilized membranes from hippocampal tissue
T1 construct: Pull-down assay using biotinylated-osteocalcin on solubilized Ocn−/− hippocampal membrane; from tissue; host or cells: hippocampi of Ocn-/- mice, membranes solubilized with n-octyl beta-D-thioglucopyranoside
T1 sequence (Q8C419 25-1200): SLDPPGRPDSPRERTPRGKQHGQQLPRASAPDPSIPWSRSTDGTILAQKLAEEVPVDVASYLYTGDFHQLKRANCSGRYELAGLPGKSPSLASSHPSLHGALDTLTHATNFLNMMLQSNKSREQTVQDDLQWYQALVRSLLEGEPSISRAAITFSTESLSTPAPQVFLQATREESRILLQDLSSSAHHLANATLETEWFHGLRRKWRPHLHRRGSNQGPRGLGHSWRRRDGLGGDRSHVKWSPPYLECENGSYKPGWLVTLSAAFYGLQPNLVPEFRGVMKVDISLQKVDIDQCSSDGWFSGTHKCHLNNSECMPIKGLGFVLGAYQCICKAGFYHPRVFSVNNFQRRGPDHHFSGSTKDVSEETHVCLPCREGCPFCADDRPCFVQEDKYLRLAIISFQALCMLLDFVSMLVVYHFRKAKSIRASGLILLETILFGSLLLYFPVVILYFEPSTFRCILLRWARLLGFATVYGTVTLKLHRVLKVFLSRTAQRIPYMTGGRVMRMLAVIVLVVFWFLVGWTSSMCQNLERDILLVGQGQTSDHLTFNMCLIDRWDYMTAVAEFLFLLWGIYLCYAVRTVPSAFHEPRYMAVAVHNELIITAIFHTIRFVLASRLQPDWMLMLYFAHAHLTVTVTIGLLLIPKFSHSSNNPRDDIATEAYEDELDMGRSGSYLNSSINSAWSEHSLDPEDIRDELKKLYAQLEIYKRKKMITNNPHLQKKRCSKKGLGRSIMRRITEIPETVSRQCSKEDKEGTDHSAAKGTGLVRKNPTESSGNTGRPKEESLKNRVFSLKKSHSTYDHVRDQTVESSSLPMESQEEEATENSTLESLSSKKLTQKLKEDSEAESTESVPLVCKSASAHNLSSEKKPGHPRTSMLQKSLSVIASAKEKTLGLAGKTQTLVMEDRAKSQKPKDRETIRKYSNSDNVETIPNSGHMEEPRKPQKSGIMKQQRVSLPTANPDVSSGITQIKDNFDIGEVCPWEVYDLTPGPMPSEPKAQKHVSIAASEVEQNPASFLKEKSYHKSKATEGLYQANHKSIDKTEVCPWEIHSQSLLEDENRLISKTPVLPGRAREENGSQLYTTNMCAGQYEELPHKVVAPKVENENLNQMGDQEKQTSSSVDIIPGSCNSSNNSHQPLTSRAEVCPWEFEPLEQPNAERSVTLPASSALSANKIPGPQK
T1 sequence (P21279 1-359 partner): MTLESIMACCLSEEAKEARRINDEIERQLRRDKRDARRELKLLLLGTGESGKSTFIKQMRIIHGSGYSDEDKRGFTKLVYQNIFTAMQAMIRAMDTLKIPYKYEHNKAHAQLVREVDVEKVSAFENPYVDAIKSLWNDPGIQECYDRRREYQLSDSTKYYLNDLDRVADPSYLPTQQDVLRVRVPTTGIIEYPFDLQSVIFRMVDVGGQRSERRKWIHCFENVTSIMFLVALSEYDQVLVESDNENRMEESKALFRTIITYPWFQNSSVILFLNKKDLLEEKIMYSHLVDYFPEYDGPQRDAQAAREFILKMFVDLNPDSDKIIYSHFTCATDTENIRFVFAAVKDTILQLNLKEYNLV
Description: For Western blotting, frozen hippocampi from adult mice were lysed and homogenized in 250 µl tissue lysis buffer (25 mM Tris HCl 7.5; 100 mM NaF; 10 mM Na4P2O7; 10 mmM EDTA; 1% NP 40). Proteins were transferred to nitrocellulose membranes, and blocked with TBST-5% BSA for 1 hour. Antibodies: anti-Runx2 M-70 sc-10758, Santa Cruz, anti-BDNF: sc-546, Santa Cruz; anti-tubulin: T6199, Sigma; anti-Gpr158 ABIN1535721, Assay Biotechnology; anti-Na,K ATPase 3010S Cell Signaling , were diluted (1:1000) in TBST-5% BSA and incubated overnight at 4° C. HRP-coupled secondary antibodies and ECL were used to visualize the signal. Western blot bands were quantified using ImageJ software. cAMP accumulation was measured in primary hippocampal neurons by using cAMP Parameter Assay Kit (R&D systems) and performed in primary hippocampal neurons (DIV15) following manufacturer instructions. For IP1 accumulation was determined in primary hippocampal neurons (DIV15) by using IP-One ELISA assay kit (Cisbio) following manufacturer instructions. […]
Streptavidin were added for 30 minutes at room temperature followed by PBS washes. […] For hormonal measurement; circulating levels of the carboxylated, undercarboxylated or uncarboxylated forms of osteocalcin were measured by ELISA. CTX content in serum (ng/ml) were measured with specific ELISAs (RatLaps™ (CTX-I) EIA (Immunodiagnosticsystems).

binding in the brainstem ([1]; WT brain sections): bound to neurons of the raphe nuclei
Substance: biotinylated osteocalcin: biotin-labelled undercarboxylated osteocalcin used for binding and pull-down assays (YLGASVPSPDPLEPTREQCELNPACDELSDQYGLKTAYKRIYGITI; ends and bridges not checked; also: biotin label, attachment site not given here)
binding in the midbrain ([1]; WT brain sections): bound to the ventral tegmental area and the substantia nigrae | binding to neuronal populations in brain sections ([1]; adult or embryonic (E18.5) WT brain sections): bound to several neuronal populations in the forebrain, midbrain, and brainstem | specificity of binding in midbrain and brainstem (competition) ([1]; excess of unlabeled osteocalcin or of GST): specific since it was chased away by an excess of unlabeled osteocalcin but not by an excess of GST | binding in pull-down assay [2]: could bind a complex containing Gpr158 and the G[…]q subunit
